Source: patent US20160374368A9, “Mimicking the Metabolic Effect of Caloric Restrictions by Administration of Glucose Anti-Metabolites to Enhance Positive Response in a Mammal” (The Iams Company, priority 2013, published 2016)

How the values were obtained:
[1] = tested on: hexokinase; settings: cited from earlier work
[2] = tested on: isolated rat hepatocytes; settings: cited from earlier work
[3] = tested on: rodents; settings: cited from earlier work
[4] = cited from earlier work
[5] = injected into a rat; cited from earlier work
[6] = cited from earlier work; remark: listed apart in the source
[7] = injected, rats, cited from earlier work
[8] = tested on: cats; test: Behavioural assessment of play motivation in cats (weighted swing door); type: in vivo; settings: vs same diets without MH
Description: Twenty cats (N=20) of similar age (˜2.5 years), and split 10 female (5 lean and 5 moderately overweight) and 10 male (5 lean and 5 moderately overweight). To effectively test the effects of MH on energy metabolism dietary energy needs, intended to maintain weight, were provided equally between animals on a body weight basis; therefore, each cat received 45 kcal ME/kg body weight/d (females) and 50 kcal ME/kg body weight/d (males).
For two weeks prior to the initiation of the study cats were fed Iams® Original Chicken. Diets were presented in kibble form and cats were fed individually at 7:00 am each day and will be permitted 60 minutes to eat during food offerings. This feeding protocol were maintained throughout the entire study except on days in which fasted blood/calorimetry samples are obtained as cats were fed following the sampling period which was no later than 9:00 am. […]
Two walled stalls (each measuring: 100 cm W×100 cm L×75 cm H; Quenn City polymers, Dayton, Ohio), one classified as the start box and the other the goal box, each with a plexi-glass roof containing a 1 cm diameter hole in the center, were placed next to each other and connected via a swing door (23 cm W×18 cm H). […] Cats were assessed two times per dietary treatment on day 14 and again on day 37 at approximately 5 hrs post feeding. […]

[9] = tested on: Labrador Retrievers; test: Serum Trp:LNAA ratio in dogs fed control diet or control diet +MH (HPLC amino acid analysis); type: in vivo; settings: 200 ppm MH in the diet
Description: Brain serotonin is known to influence the mood. Serotonin is synthesized in the brain from tryptophan, which uptake into the brain is dependent on the plasma ratio of tryptophan to the sum of other large neutral amino acids (Trp/LNAA). Other large amino acids include leucine, isoleucine, valine, phenylalanmine and tyrosine. It is well accepted that carbohydrate rich diets increase this ration and protein rich diets decrease the ration, in other words, when there is decrease in insulin sensitivity and a greater glycemic response, greater Trp/LNAA ratios are expected. Blood samples for amino acid analysis were collected from a total of 51 dogs fed a control diet or a control diet +MH. The blood samples were collected from two cohorts of Labrador Retrievers. Cohort 1 included 19 neutered Labrador Retrievers, 5 male and 14 female, ranged in age from 12.6 to 15.7 years old at the time of sampling. Cohort 2 included 32 neutered Labrador Retrievers, 9 males and 23 females ranged in age from 8.3 to 12.5 years old at the time of sampling. Each cohort was fed similar a control diet or a test diet where the only differences was inclusion of mHep enriched avocado juice concentrate targeted to supply 200 ppm MH in the diet. The avocado juice concentrate was derived from whole fruit (flesh, peel and pit) avocados. […]

[10] = tested on: Labrador Retrievers; test: Annual kennel assessment of affective behavior in dogs fed control diet or control diet+MH; type: in vivo
Description: Annual kennel assessments (period of 5 years) have been conducted on dogs fed a control diet or a control diet+MH. This assessment included two cohorts of Labrador Retrievers. Cohort 1 included 39 neutered Labrador Retrievers, 12 male and 27 female, ranged in age from 5.1 to 8.2 years old at the beginning of the test-feeding period (mean age at the beginning of the study 6.7 years). Cohort 2 included 41 neutered Labrador Retrievers, 12 males and 29 females ranged in age from 2.0 to 6.1 years old at the beginning of the test feeding period (mean age at the beginning of the study 4.0 years). Each cohort was fed a control diet or a test diet where the only differences was inclusion of mHep-enriched avocado extract targeted to supply 2 mg/kg body weight of MH. All researchers, lab assistants, and assessors were blinded to the feeding groups. Dogs were assessed during August and September each year. Each scorer was instructed to operate independently. Trained assessors were categorized as either familiar or unfamiliar to the dogs. The familiar assessors were people that worked with the dogs on a regular basis. […] Each assessing group was comprised of a handler and two scorers. All dogs were assessed with three people in the room with at least one familiar scorer in each group. This created a total of three possible conditions: familiar handler, two familiar scorers (Fam/Fam); familiar handler, one unfamiliar scorer, one familiar scorer (Fam/Unfam); unfamiliar handler, one unfamiliar scorer, one familiar scorer (Unfam/Unfam). The behaviors are outlined in Table 1. Calculating score: Assessors were asked to score dogs on a scale from 1-5 including half scores. For the behavior items, a score of 1 signified “Fails To Do” while 5 signified “Excellent”. For the demeanor items, a score of 1 signified “Strongly” while a score of 5 signified “Not at All”. All necessary items were reverse scored to allow higher scores to indicate a more favorable score and lower score to indicate a less favorable score. The sums of the corresponding behavior and demeanor items were used to calculate the score for each of the two behavior components. These scores were used to compare changes across years and between groups. [table]

[11] = 2 mg/kg body weight MH, vs control diet

Which “enzymatic conversion to the 6-phosphate” value ([1]; compared with 2-deoxy-glucose) does the source give for `OC[C@H]1OC[C@H](O)[C@@H](O)[C@@H]1O` [1,5-Anhydro-D-Glucitol, 1,5-anhydro-D-glucitol] here?
The value was “less efficient than that of 2-deoxy-glucose”.

With `O=P(O)(O)OC[C@H]1OC[C@H](O)[C@@H](O)[C@@H]1O` [1,5-anhydro-D-glucitol-6-phosphate] as the compound, how does the inhibition of hexokinase [1] read?
Its inhibition of hexokinase is “allosteric (non-competitive) inhibitor of hexokinase”.

For `OC[C@H]1O[C@H](CO)[C@@H](O)[C@@H]1O` [2,5-Anhydro-D-mannitol, 2,5-anhydro-D-mannitol], which “effect on glucose formation and utilization” value [2] is on record?
The value was “interfere in glucose formation and utilization”.

What does the source list for `O=CC[C@@H](O)[C@H](O)[C@H](O)CO` [2-deoxy-D-glucose]?
side effects and toxicity ([3]; high doses): significant untoward side effects and toxicity have been observed; mimicking metabolic hallmarks of caloric restriction ([3]; rodents, long-term, lower dose): can mimic some of the major metabolic hallmarks of caloric restriction and enhanced longevity, including reduced body temperature, weight loss, and lower fasting insulin levels

For `CO[C@@H]([C@H](O)[C@H](O)CO)[C@@H](O)C=O` [3-O-methylglucose], which “metabolism of the analog” value ([4]; in contrast with 2-deoxy-D-glucose) is on record?
Its value is “not metabolized”.

What about the “responses to administration (prevention of glucose utilization as energy source) relative to 2-deoxyglucose” value ([4]; rats) of the same compound?
The value was “about seven times weaker than those to 2-deoxyglucose”.

For `O=C[C@H](O)[C@@H](O)[C@H](O)[C@H](S)CO` [5-Thioglucose, 5-thio-D-glucose], which “excreted unchanged in urine” value [5] is on record?
The value was 97%.

With `O=C(CO)[C@@H](O)[C@@H](O)[C@H](O)[C@H](O)CO` [mannoheptulose] as the compound, how does the “mannoheptulose ingested appearing in urine” value ([6]; after oral administration) read?
Its value is “About 5%”.

And the “safety of oral doses” value ([6]; doses of 10 grams, humans, orally)?
Its value is “safely administered”.

And the “remained in the body” value ([7]; a day after the injection)?
The value was 5%.

And the excreted unchanged [7]?
Its excreted unchanged is 66%.

What about the metabolized [7] of the same compound?
The metabolized was 29%.

And the motivation to play [8]?
Its motivation to play is “significantly greater motivation to play”.

And the “Trp:LNAA concentrations, fasting vs 4 hrs post fed” value ([9]; Cohort 1 (older dogs), P>0.05)?
Its value is “no differences”.

And the “Trp:LNAA concentrations, fasting vs 4 hrs post fed” value ([9]; old and young cohorts pooled)?
Its value is “no differences”.

What about the “comfort in new areas score” value ([10]; 2 mg/kg body weight MH, unfamiliar/unfamiliar condition, vs control diet) of the same compound?
The value was “significantly better response”.

What about the “score for ability to handle new areas” value [10, 11] of the same compound?
The value was “higher scores”.

What about the “score for social interaction” value [10, 11] of the same compound?
Its value is “higher scores”.

What about the “social interaction score, difference between groups” value ([10]; fam/fam or unfam/unfam condition) of the same compound?
The value was “not different”.
